The target in the first test is T1, human MGL from HeLa cells (Homo sapiens, UniProt Q99685).
T1 construct: combining endogenously expressed MGL from HeLa cells with test compounds; endogenous in cells; host or cells: HeLa cells / cell homogenates
T1 sequence (Q99685 1-303): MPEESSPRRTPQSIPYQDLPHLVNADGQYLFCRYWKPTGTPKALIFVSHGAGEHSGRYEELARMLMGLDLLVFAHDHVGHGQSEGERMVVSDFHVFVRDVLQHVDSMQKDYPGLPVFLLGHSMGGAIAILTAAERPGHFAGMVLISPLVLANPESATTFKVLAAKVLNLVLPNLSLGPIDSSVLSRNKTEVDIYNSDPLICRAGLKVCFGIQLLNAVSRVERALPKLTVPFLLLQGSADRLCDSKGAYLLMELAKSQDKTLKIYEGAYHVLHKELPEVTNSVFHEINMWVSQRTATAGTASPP
Nature of the test: In vitro MGL activity assay: [glycerol-1,3-3H]-oleyl glycerol cleavage by MGL from HeLa cells. The settings on record: 300 nM [Glycerol-1,3-3H]-oleyl glycerol, one hour. Type of test: biochemical. An excerpt: MGL is the predominant hydrolase in HeLa cells/cell homogenates.
In the case of `C[C@H]1c2nn(C)c(-c3cc(F)c(F)c(F)c3)c2CCN1C(=O)c1cc2c(cn1)OCCC2` [Example 573, 3,4-Dihydro-2H-pyrano[2,3-c]pyridin-6-yl-[(7S)-2,7-dimethyl-3-(3,4,5-trifluorophenyl)-5,7-dihydro-4H-pyrazolo[3,4-c]pyridin-6-yl]methanone], half-maximal inhibition (IC50) was put at 242 nM.

Compound `C[C@H]1c2nn(C)c(-c3cccc(OC(F)(F)F)c3)c2CCN1C(=O)c1ccc2ncccc2c1` [Example 501, [(7S)-2,7-Dimethyl-3-[3-(trifluoromethoxy)phenyl]-5,7-dihydro-4H-pyrazolo[3,4-c]pyridin-6-yl]-(6-quinolyl)methanone] came in with an IC50 of 58.6 nM.

In the case of `C[C@H]1c2nn(C)c(-c3cncc(OC(F)F)c3)c2CCN1C(=O)c1ccc2ncccc2c1` [Example 528, [(7S)-3-[5-(Difluoromethoxy)-3-pyridyl]-2,7-dimethyl-5,7-dihydro-4H-pyrazolo[3,4-c]pyridin-6-yl]-(6-quinolyl)methanone], half-maximal inhibition (IC50) was put at 397 nM.

`C[C@@H]1c2nn(-c3ccccc3)c(-c3ccccc3)c2CCN1C(=O)c1cnn(C)c1C1CC1` [Example 349, (R)-(5-cyclopropyl-1-methyl-1H-pyrazol-4-yl) (7-methyl-2,3-diphenyl-2,4,5,7-tetrahydro-6H-pyrazolo[3,4-c]pyridin-6-yl) methanone] showed a half-maximal inhibitory concentration (IC50) of 1080 nM.

As to `CC1CC1c1c(C(=O)N2CCc3c(nn(C)c3-c3cc(F)c(F)c(F)c3)[C@@H]2C)cnn1C` (stereo partly drawn) [Example 341, ((S)-2,7-Dimethyl-3-(3,4,5-trifluorophenyl)-2,4,5,7-tetrahydro-6H-pyrazolo[3,4-c]pyridin-6-yl)(1-methyl-cis-5-(2-methylcyclopropyl)-1H-pyrazol-4-yl)methanone], the IC50 amounted to 9.53 nM.

Compound `C[C@H]1c2nn(C)c(-c3ccc(OC(F)(F)F)cc3)c2CCN1C(=O)c1ccc2ncccc2c1` [Example 500, [(7S)-2,7-Dimethyl-3-[4-(trifluoromethoxy)phenyl]-5,7-dihydro-4H-pyrazolo[3,4-c]pyridin-6-yl]-(6-quinolyl)methanone] came in with an IC50 of 75.7 nM.

For the compound `C[C@H]1c2nn(C)c(-c3ccc(Cl)c(Cl)c3)c2CCN1C(=O)c1ccc2ncccc2c1` [Example 507, [(7S)-3-(3,4-Dichlorophenyl)-2,7-dimethyl-5,7-dihydro-4H-pyrazolo[3,4-c]pyridin-6-yl]-(6-quinolyl)methanone], the IC50 came out at 15.2 nM.

For the compound `C[C@H]1c2nn(C)c(-c3cc(F)c(F)c(F)c3)c2CCN1C(=O)c1cccc2nncn12` [Example 438, [(7S)-2,7-Dimethyl-3-(3,4,5-trifluorophenyl)-5,7-dihydro-4H-pyrazolo[3,4-c]pyridin-6-yl]-([1,2,4]triazolo[4,3-a]pyridin-5-yl)methanone], the IC50 amounted to 513 nM.

`C[C@H]1c2nn(C)c(-c3cc(F)c(F)c(F)c3)c2CCN1C(=O)c1ccnc2c1OCCO2` [Example 569, 2,3-Dihydro-[1,4]dioxino[2,3-b]pyridin-8-yl-[(7S)-2,7-dimethyl-3-(3,4,5-trifluorophenyl)-5,7-dihydro-4H-pyrazolo[3,4-c]pyridin-6-yl]methanone] returned an IC50 of 28.7 nM.

`Cc1ccnn2nc(C3CC3)c(C(=O)N3CCc4c(nn(C)c4-c4cc(F)c(F)c(F)c4)[C@@H]3C)c12` [Example 444, (2-Cyclopropyl-4-methyl-pyrazolo[1,5-b]pyridazin-3-yl)-[(7S)-2,7-dimethyl-3-(3,4,5-trifluorophenyl)-5,7-dihydro-4H-pyrazolo[3,4-c]pyridin-6-yl]methanone] showed an IC50 of 2380 nM.

The same test, now with this note: 300 nM [Glycerol-1,3-3H]-oleyl glycerol, one hour incubation.
Turning to `C[C@@H]1c2nn(C)c(-c3cc(F)cc(F)c3)c2CCN1C(=O)c1ccc2nccnc2c1` (single isomer, unassigned) [Example 169], the IC50 was found to be 3740 nM.

With `C[C@H]1c2nn(C)c(-c3cc(F)c(F)c(F)c3)c2CCN1C(=O)c1ccc2ncccc2n1` [Example 244, (S)-(2,7-Dimethyl-3-(3,4,5-trifluorophenyl)-2,4,5,7-tetrahydro-6H-pyrazolo[3,4-c]pyridin-6-yl)(1,5-naphthyridin-2-yl)methanone], half-maximal inhibition (IC50) required 14.1 nM.

The compound `C[C@H]1c2nn(C)c(-c3cc(F)c(F)c(F)c3)c2CCN1C(=O)c1cncc2c1ccn2C` [Example 224, (S)-(2,7-Dimethyl-3-(3,4,5-trifluorophenyl)-2,4,5,7-tetrahydro-6H-pyrazolo[3,4-c]pyridin-6-yl)(1-methyl-1H-pyrrolo[2,3-c]pyridin-4-yl)methanone] showed an IC50 of 2.55 nM.

In turn, `C[C@H]1c2nn(C)c(-c3cc(F)cc(F)c3)c2CCN1C(=O)c1cnc2ccoc2c1` [Example 153, (S)-(3-(3,5-Difluorophenyl)-2,7-dimethyl-2,4,5,7-tetrahydro-6H-pyrazolo[3,4-c]pyridin-6-yl)(furo[3,2-b]pyridin-6-yl)methanone] showed an IC50 of 15.4 nM.

Take `COc1cccc(C(=O)N2CCc3c(nn(C)c3-c3ccccc3)C2)c1Cl` [Example 13, (2-Chloro-3-methoxyphenyl)(2-methyl-3-phenyl-2,4,5,7-tetrahydro-6H-pyrazolo[3,4-c]pyridin-6-yl)methanone]: it took 16.8 nM to reach half-maximal inhibition (IC50).

In the case of `COc1ccc(C(=O)N2CCc3c(nn(C)c3-c3cc(F)c(F)c(F)c3)[C@@H]2C)cc1-c1ccn(C)n1` [Example 271, [(7S)-2,7-Dimethyl-3-(3,4,5-trifluorophenyl)-5,7-dihydro-4H-pyrazolo[3,4-c]pyridin-6-yl]-[4-methoxy-3-(1-methylpyrazol-3-yl)phenyl]methanone], inhibition was half-maximal at 182 nM (IC50).

`C[C@@H]1c2nn(C)c(-c3cccc(Cl)c3)c2CCN1C(=O)c1ccc2nccnc2c1` (single isomer, unassigned) [Example 133]: the IC50 was over 10000 nM.

For the compound `Cn1nc2c(c1-c1ccccc1)CCN(C(=O)c1cccc3nccn13)C2` [Example 80, Imidazo[1,2-a]pyridin-5-yl(2-methyl-3-phenyl-2,4,5,7-tetrahydro-6H-pyrazolo[3,4-c]pyridin-6-yl)methanone], half-maximal inhibition (IC50) was put at 2330 nM.

For `Cn1nc2c(c1-c1cccc(F)c1)CCN(C(=O)c1ccc3ncccc3c1)C2` [Example 100, (3-(3-Fluorophenyl)-2-methyl-2,4,5,7-tetrahydro-6H-pyrazolo[3,4-c]pyridin-6-yl)(quinolin-6-yl)methanone], the IC50 is 125 nM.

With `COc1cc(OC)cc(C(=O)N2CCc3c(nn(C)c3-c3ccccc3)C2)c1` [Example 11, (3,5-Dimethoxyphenyl)-(2-methyl-3-phenyl-5,7-dihydro-4H-pyrazolo[3,4-c]pyridin-6-yl)methanone], half-maximal inhibition (IC50) was put at 187 nM.

As for `COc1nccc(C(=O)N2CCc3c(nn(C)c3-c3cc(F)c(F)c(F)c3)[C@@H]2C)c1Cl` [Example 316, (3-Chloro-2-methoxy-4-pyridyl)-[(7S)-2,7-dimethyl-3-(3,4,5-trifluorophenyl)-5,7-dihydro-4H-pyrazolo[3,4-c]pyridin-6-yl]methanone], the IC50 is 17.2 nM.

Consider `C[C@H]1c2nn(C)c(-c3cc(F)c(F)c(F)c3)c2CCN1C(=O)c1ccc2ncccc2c1` [Example 234, (S)-(2,7-Dimethyl-3-(3,4,5-trifluorophenyl)-2,4,5,7-tetrahydro-6H-pyrazolo[3,4-c]pyridin-6-yl)(quinolin-6-yl)methanone], for which half-maximal inhibition (IC50) was put at 4.71 nM.

In the case of `C[C@H]1c2nn(C)c(-c3ccccc3)c2CCN1C(=O)c1ccc2ncccc2c1` (single isomer, unassigned) [Example 112], the IC50 turned out to be 6.96 nM.

In turn, `Cc1ncn(-c2cccc(C(=O)N3CCc4c(nn(C)c4-c4cc(F)c(F)c(F)c4)[C@@H]3C)c2)n1` [Example 276, [(7S)-2,7-Dimethyl-3-(3,4,5-trifluorophenyl)-5,7-dihydro-4H-pyrazolo[3,4-c]pyridin-6-yl]-[3-(3-methyl-1,2,4-triazol-1-yl)phenyl]methanone] registered an IC50 of 145 nM.

Compound `C[C@H]1c2nn(C)c(-c3cc(F)c(F)c(F)c3)c2CCN1C(=O)c1c(F)cccc1-n1cncn1` [Example 280, [(7S)-2,7-Dimethyl-3-(3,4,5-trifluorophenyl)-5,7-dihydro-4H-pyrazolo[3,4-c]pyridin-6-yl]-[2-fluoro-6-(1,2,4-triazol-1-yl)phenyl]methanone] registered an IC50 of 7.77 nM.

`C[C@H]1c2nn(C)c(-c3cc(F)c(F)c(F)c3)c2CCN1C(=O)c1ccc2c(c1)N(C)C(=O)CO2` [Example 204, (S)-6-(2,7-Dimethyl-3-(3,4,5-trifluorophenyl)-4,5,6,7-tetrahydro-2H-pyrazolo[3,4-c]pyridine-6-carbonyl)-4-methyl-2H-benzo[b][1,4]oxazin-3(4H)-one] registered an IC50 of 17.7 nM.

As for `COCc1cncc(C(=O)N2CCc3c(nn(C)c3-c3cccc(Cl)c3)[C@@H]2C)c1` [Example 120, (S)-(3-(3-Chlorophenyl)-2,7-dimethyl-2,4,5,7-tetrahydro-6H-pyrazolo[3,4-c]pyridin-6-yl)(5-(methoxymethyl)pyridin-3-yl)methanone], 174 nM corresponded to half-maximal inhibition (IC50).

Compound `C[C@H]1c2nn(C)c(-c3ccc(C(F)(F)F)o3)c2CCN1C(=O)c1ccc2nccnc2c1` [Example 247, (S)-(2,7-Dimethyl-3-(5-(trifluoromethyl)furan-2-yl)-2,4,5,7-tetrahydro-6H-pyrazolo[3,4-c]pyridin-6-yl)(quinoxalin-6-yl)methanone] had an IC50 of 186 nM.

`C[C@H]1c2nn(C)c(-c3cc(F)cc(F)c3)c2CCN1C(=O)c1ccnc2c1ccn2CCF` [Example 152, (S)-(3-(3,5-Difluorophenyl)-2,7-dimethyl-2,4,5,7-tetrahydro-6H-pyrazolo[3,4-c]pyridin-6-yl)(1-(2-fluoroethyl)-1H-pyrrolo[2,3-b]pyridin-4-yl)methanone] returned an IC50 of 1.63 nM.

These data come from patent US11820766B2, “Monoacylglycerol lipase modulators” (Janssen Pharmaceutica NV, priority 2018, dated 2023).
